Target: T1, MbRIP1 (type 1 ribosome inactivating protein from Momordica balsamina) (Momordica balsamina, UniProt D9J2T9)
T1 sequence (D9J2T9 1-246): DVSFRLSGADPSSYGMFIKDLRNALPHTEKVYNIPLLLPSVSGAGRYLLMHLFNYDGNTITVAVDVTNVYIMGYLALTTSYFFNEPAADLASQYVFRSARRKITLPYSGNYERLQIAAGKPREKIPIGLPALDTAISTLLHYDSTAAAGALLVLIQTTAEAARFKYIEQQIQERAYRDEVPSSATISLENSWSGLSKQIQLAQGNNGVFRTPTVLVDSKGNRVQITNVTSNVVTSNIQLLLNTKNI
Test: Binding studies using fluorescence

Kd [µM] | Compound
~5 | Nc1ccn([C@@H]2O[C@H](CO)[C@@H](O)[C@H]2O)c(=O)n1 [CYT, cytidine]
~230 | Nc1cc[nH]c(=O)n1 [CYS, cytosine]

Reference: publication PMC5668913 (Biochemistry and Biophysics Reports, 2015)
